Patent US6903104B2, “Indol-3-YL-2-oxoacetamide compounds and methods of use thereof” (National Health Research Institutes, priority 2001, dated 2005)

Columns and labels:
[1] = tested on: lung A549 cancer cells; assay: In vitro cytotoxicity MTS assay, lung A549; type: cell-based, human; settings: 72 hours
Procedure: (§1) A panel of human cancer cells, gastric NUGC3 and HR, nasopharyngeal HONE1, hepatocellular HEP G2 and HA-22T, colorectal DLD1, lung A549, prostate PC3, breast MCF7 and its adriamycin-resistant MCF7/ADR subline, uterus MES-SA and its adriamycin-resistant MES-SA/Dx5 subline, is purchased from Food Industry Research and Development Institute, Hsinchu, Taiwan R.O.C. or American Type Culture Collection, Manassas, Va. U.S.A., are used in in vitro cytotoxicity assays. The human cells are seeded at a cell density of 3000 or 4500 cells/100 μl/well in 96-well flat-bottom plates and incubated for 24 hours at 37° C. in a 5% CO2 incubator. The testing compounds are dissolved in dimethyl sulfoxide (DMSO) and further diluted into the culture medium for treatments of human cancer cells in vitro. The drug-containing media has a final DMSO concentration of ≦0.3%. The compounds of this invention are prepared in culture media for testing at a range of concentrations from 10, 1, 0.1, 0.01 to 0.001 μM. Each compound solution is (200 μl/well in duplicate) in the cell plates and is treated for 72 hours at 37° C., 5% CO2 in an incubator. Actinomycin D at 5 μM and 0.3% DMSO are used as the positive and vehicle controls, respectively. A colorimetric assay using 3-(4,5-dimethylthiazol-2-yl)-5-(3-carboxymethoxyphenyl)-2-(4-sulfophenyl)-2H-tetrazolium (MTS) and phenazine methosulfate (PMS) is used to determine the potency of the compounds. This assay measures cell viability based on the cellular activity in conversion of a tetrazolium salt into a colored soluble formazan product. The optical density (OD) values are measured at 490 nm with a 1420 multilabel counter VICTOR® from Wallac, Turku, Finland. All of the measured values are subtracted with that of the blank control wells without cells before further calculations. The efficacy data are expressed as a percentage normalized to the vehicle controls as calculated in the following formulae. Inhibitory potency (% of vehicle control)=[(OD490compound−OD490blank)/(OD490vehicle−OD490blank)]×100%. The concentration (IC50) of a test compound that inhibits 50% of the cellular activity is determined.

[2] = tested on: nasopharyngeal HONE1 cancer cells; assay: In vitro cytotoxicity MTS assay, nasopharyngeal HONE1; type: cell-based, human; settings: 72 hours
Procedure: as §1

[3] = tested on: gastric HR cancer cells; assay: In vitro cytotoxicity MTS assay, gastric HR; type: cell-based, human; settings: 72 hours
Procedure: as §1

[4] = tested on: hepatocellular HA-22T cancer cells; assay: In vitro cytotoxicity MTS assay, hepatocellular HA-22T; type: cell-based, human; settings: 72 hours
Procedure: as §1

[5] = tested on: rat aorta endothelial cells; assay: Rat aorta tube formation assay (angiogenesis inhibition); type: cell-based, Spraque-Dawley rats; parameters: key: Noninhibitors are indicated by the symbol (−), meaning that the extent of endothelial cell growth is essentially at the same level as that of the control; The most potent inhibitors receive a score of (+++++), indicating essentially no measurable endothelial cell growth; settings: final conc. 0.3 μg/ml, 5 days
Procedure: The procedures are modified from previous reports (Burbridge and West 2001; Bauer et al. 2000; Nicosai and Ottinetti 1990a) and described as follows. Male Spraque-Dawley rats of 6-8 weeks old are purchased from the National Laboratory Animal Breeding and Research Center (Taipei, Taiwan). The animals are anesthetized with urethane (2 g/kg, intraperitoneal) and the thoracic aortas are quickly harvested in a laminar flow hood. The aortas are rinsed with ice-cold normal saline with 10 μg/ml gentamicin and the attached fibroadipose tissues are removed using micro-dissection scissors. The aortas are cross-sectioned into rings of 1 mm in thickness. A mixture of Matrigel®, purchased from BD Biosciences, solution and the EBM-II medium, purchased from BioWhittaker Inc., (1:1) with 2% FBS, 0.25 mg/ml, amphotericin B and 10 μg/ml gentamicin is prepared and added at 100 μl to each well of a 48-well plate. The mixture is allowed to gel at 37° C. Aorta rings are then placed onto the gelled matrix and embedded in an additional 150 μl per well of the mixture solution and allowed to gel at 37° C. The aorta rings are then covered with 125 μl of the EGM-II medium and incubated overnight in humidified incubator with 5% CO2/95% air at 37° C. After removal of the EGM-II from the established aorta cultures, the compound-containing media are applied at 300 μl per well to the cultures and then incubated in 5% CO2/95% air at 37° C. for 5 days. The cultures are then subject to the 3-[4,5-dimethylthiazol-2-yl]-2,5 diphenyl-2H-tetrazolium bromide (MTT) or 3-(4,5-dimethylthiazol-2-yl)-5-(3-carbomethoxyphenyl)-2H-tetrazolium (MTS) assay and OD490 nm values measured. The testing compounds are dissolved in dimethyl sulfoxide (DMSO) and prepared in EBM-II media with at a final concentration of DMSO less than 0.1%.
The capillary-like, tube structure of the outgrown rat aorta endothelial cells is easily visualized by MTT staining. The medium on top of the matrix is removed from the established aorta ring cultures. MTT solution of 5 mg/ml in saline is added to the cultures at 100 μl/well and the cultures are incubated in a CO2 incubator at 37° C. for 24 hr. The stained cultures are then examined under a microscope DMIRB from Leica and photos taken with a digital camera.
Inhibition activity is also assessed in the following manner. The reductive reaction of MTS initiated by the viable cellular mitochondrial activity is used as a basis for the measurement of cell viability (Cory et al. 1991; Gieni et al. 1995). To the rat aorta ring cultures 300 μl of a solution containing 100 μg MTS and 1 μg, phenazine methosulfate is added per well and incubated in 5% CO2/95% air at 37° C. for 24 hr. During the incubation, MTS is converted to formazan product. At the end of incubation, the solution overlaying the gel is well-mixed and 100 μl aliquots are transferred into a 96-well plate for measurement of OD490 nm with a spectrophotometer VICTOR™-II from Wallac Oy.
The compounds listed in Table 3 are screened for angiogenesis inhibition. The control compound, ASTA, is D-24851, N-[pyridin-4-yl]-[1-(4-chlorobenzyl)-indol-3-yl]-glyoxylic acid amide. Noninhibitors are indicated by the symbol (−), meaning that the extent of endothelial cell growth is essentially at the same level as that of the control.

[6] = tested on: hepatocellular HEP G2 cancer cells; assay: In vitro cytotoxicity MTS assay, hepatocellular HEP G2; type: cell-based, human; settings: 72 hours
Procedure: as §1

[7] = tested on: breast MCF7 cancer cells; assay: In vitro cytotoxicity MTS assay, breast MCF7; type: cell-based, human; settings: 72 hours
Procedure: as §1

[8] = tested on: adriamycin-resistant MES-SA/Dx5 subline; assay: In vitro cytotoxicity MTS assay, adriamycin-resistant MES-SA/Dx5; type: cell-based, human; settings: 72 hours
Procedure: as §1

[9] = tested on: colorectal DLD1 cancer cells; assay: In vitro cytotoxicity MTS assay, colorectal DLD1; type: cell-based, human; settings: 72 hours
Procedure: as §1

[10] = tested on: gastric NUGC3 cancer cells; assay: In vitro cytotoxicity MTS assay, gastric NUGC3; type: cell-based, human; settings: 72 hours
Procedure: as §1

[11] = tested on: prostate PC3 cancer cells; assay: In vitro cytotoxicity MTS assay, prostate PC3; type: cell-based, human; settings: 72 hours
Procedure: as §1

[12] = tested on: adriamycin-resistant MCF7/ADR subline; assay: In vitro cytotoxicity MTS assay, adriamycin-resistant MCF7/ADR; type: cell-based, human; settings: 72 hours
Procedure: as §1

[13] = tested on: uterus MES-SA cancer cells; assay: In vitro cytotoxicity MTS assay, uterus MES-SA; type: cell-based, human; settings: 72 hours
Procedure: as §1

| SMILES | IC50 [1] | IC50 [2] | IC50 [3] | IC50 [4] | Inhibition Score [5] | IC50 [6] | IC50 [7] | IC50 [8] | IC50 [9] | IC50 [10] | IC50 [11] | IC50 [12] | IC50 [13] |
| --- | --- | --- | --- | --- | --- | --- | --- | --- | --- | --- | --- | --- | --- |
| Cc1cc(NC(=O)C(=O)c2cn(Cc3ccsc3)c3ccccc23)sn1 [Compound 45] | 611 nM | 48 nM | 316 nM | 2400 nM | +++++ | 1690 nM | 611 nM | 406 nM | 593 nM | 465 nM | 824 nM | 2.35 µM | 306 nM |
| CCc1cc(Cn2cc(C(=O)C(=O)Nc3cc(C)ns3)c3ccccc32)on1 [Compound 63] | 1000 nM | 35 nM | 78 nM | 559 nM | +++++ | 2470 nM | 747 nM | 330 nM | 705 nM | 118 nM | 636 nM | 5.07 µM | 312 nM |
| Cc1cc(NC(=O)C(=O)c2cn(Cc3ccco3)c3ccccc23)sn1 [Compound 40] | 746 nM | 56 nM | 295 nM | 1260 nM | +++++ | 7720 nM | 1160 nM | 263 nM | 981 nM | 395 nM | 398 nM | 1.17 µM | 235 nM |
| Cc1cc(NC(=O)C(=O)c2cn(Cc3ccno3)c3ccccc23)sn1 [Compound 54] | 1670 nM | 17 nM | 64 nM | 382 nM | +++++ | > 10000 nM | 5020 nM | 333 nM | 397 nM | 27 nM | 725 nM | 5.41 µM | 268 nM |
| N#Cc1ccc(Cn2cc(C(=O)C(=O)Nc3ccc4ncccc4c3)c3ccccc32)cc1 [Compound 3] | 6400 nM | 174 nM | 266 nM | 510 nM | +++++ | 383 nM | 640 nM | 6090 nM | 665 nM | 279 nM | 9630 nM | 0.665 µM | 4710 nM |
| O=C(Nc1cc(-c2ccc(Cl)cc2)no1)C(=O)c1cn(Cc2ccc(Cl)cc2)c2ccccc12 [Compound 38] |  | 487 nM | 2980 nM | 2240 nM | − | 3460 nM | 4260 nM |  | 3720 nM | 2010 nM |  | 4.08 µM |  |
